Test results reported in patent publication US5519055A, “Substituted kynurenines and process for their preparation” (University of Maryland at Baltimore, priority 1993, dated 1996).

What was measured:
[1] = test system: excitatory amino acid (EAA) receptor; conditions: J. Neurochem., 52, 1319-1328, 1989; cited from earlier work
[2] = test system: glycine modulatory site of the N-methyl-D-aspartate (NMDA) receptor complex; conditions: J. Neurochem., 52, 1319-1328, 1989; cited from earlier work
[3] = target: T1, KAT (partially purified enzyme preparation) (Rattus norvegicus, UniProt Q08415); test: Kinetic analysis of KAT inhibitors using a partially purified enzyme preparation; assay type: biochemical; conditions: KYN varied 2 μM to 2 mM, 1 mM pyruvate, pH 8.0, 2 h at 37° C., double reciprocal plots
T1 construct: a preparation of partially purified enzyme in a total volume of 0.1 ml; from tissue
T1 sequence (Q08415 1-423): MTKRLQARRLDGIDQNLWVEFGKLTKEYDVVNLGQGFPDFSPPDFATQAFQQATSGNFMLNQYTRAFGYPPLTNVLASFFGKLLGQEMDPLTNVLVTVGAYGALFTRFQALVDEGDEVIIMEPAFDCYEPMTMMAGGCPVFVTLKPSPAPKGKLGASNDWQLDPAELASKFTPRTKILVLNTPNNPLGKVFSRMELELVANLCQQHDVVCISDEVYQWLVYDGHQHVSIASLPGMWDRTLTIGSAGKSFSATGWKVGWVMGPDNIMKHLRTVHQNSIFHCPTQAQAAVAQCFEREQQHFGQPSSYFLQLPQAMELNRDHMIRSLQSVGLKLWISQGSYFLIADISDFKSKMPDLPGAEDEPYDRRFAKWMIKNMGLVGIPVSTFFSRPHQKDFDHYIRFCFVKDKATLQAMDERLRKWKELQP
Description: C) Kinetic analysis of KAT inhibitors using a partially purified enzyme preparation (Brain Research, 534, 37-44 (9)
The reaction mixture contained [^3 H]KYN (30 nCi), diluted with unlabelled KYN to yield a final concentration of 2 μM, 1 mM pyruvate, 70 μM pyridoxal 5'-phosphate, 150 mM Tris-acetate buffer, pH 8.0, and a preparation of partially purified enzyme in a total volume of 0.1 ml. Test compounds were included in the incubation mixture as needed. The reaction was started by the addition of pyruvate. After incubation for 2 h at 37° C., the reaction was terminated by the addition of 14 μl of 50% (w/w) trichloroacetic acid. Subsequently, 1 ml of 0.1M HCl was added and denaturated protein was removed by a 4-min centrifugation in a Beckman 52 B microfuge. 1 ml of the resulting supernatant was applied to a Dowex 50 W column (0.5×1.0 cm; H^+ form) and washed with 1 ml of 0.1M HCl, followed by 1 ml of distilled water. [^3 H]KYNA was eluted with 2 ml of distilled water and quantitated by liquid scintillation spectrometry. Enzyme measurements were performed in triplicate samples. Blanks were obtained by using an enzyme preparation which had been heat-deactivated for 10 min in a boiling water bath. […] Double reciprocal plots were constructed and lines of best fit were determined by linear regression analysis.

[4] = target: Kynurenine Aminotransferase (KAT); test: Determination of KAT activity inhibition in rat brain homogenate; assay type: biochemical; conditions: 2 μM [3H]KYN, 2 h at 37° C., pH 8.0, read-out: ID50 (inhibition of KAT enzyme activity)
Source text: (§1) Compounds which act as KAT inhibitors may be identified using standard test, for example, measuring their ability to inhibit KAT activity in rat brain homogenate as described, for example, in J. Neurochem., 57, 533-540 (1991) or their inhibitory effect on Kynurenic Acid (KYNA) production by rat brain slices as described, for example, in J. Neurochem., 52, 1629-1636 (1989). KAT catalyzes the biosynthesis of KYNA from Kynurenine (KYN): [drawing 2] and it is singularly responsible for the regulation of extracellular KYNA concentrations in the brain (J. Neurochem., 57, 533-540, 1991).
A) Determination of KAT activity inhibition in rat brain homogenate
KAT was measured as described in detail by Okuno et al. (Measurement of rat brain kynurenine aminotransferase at physiological kynurenine concentrations, J. Neurochem., 57, 533-540, 1991).
Briefly, animals were killed by decapitation and the brain tissue was homogenized (1:5 v/w in 5 mM Trisacetate buffer, pH 8.0, containing 10 mM 2-mercaptoethanol and 50 μM pyridoxal 5'-phosphate) and incubated for 2 h at 37° C. in the presence of 2 μM [^3 H]KYN (30 nCi), 1 mM 2-oxoglutarate and 70 μM pyridoxal 5'-phosphate in 150 mM Tris-acetate buffer, pH 8.0. […]
Newly synthesized [^3 H]KYNA was separated from [^3 H]KYN on a Dowex 50 W cation-exchange column and quantitated by liquid scintillation spectrometry. […]

[5] = test system: KYNA production by rat tissue slices; test: Determination of inhibition of KYNA production by rat tissue slices (cerebral cortex); assay type: cell-based; conditions: 50 μM L-KYN, 2 h at 37° C., pH 7.4
Source text: as §1
B) Determination of inhibition of KYNA production by rat tissue slices
Routinely, slices (base 1×1 mm; weight ≈1.5 mg/slice) from the cerebral cortex were separated on ice and transferred to culture wells (10 slices/well) containing 1 ml of oxygenated Krebs-Ringer buffer (NaCl, 118.5 mM; KCl, 4.75 mM; CaCl 2, 1.77 mM; MgSO4, 1.18 mM; NaH2 PO4, 12.9 mM; NaH2 PO4, 3 mM; glucose, 5mM; pH 7.4). Subsequently, the tissue was preincubated for 10 min at 37° C. and incubated further for 2 h at 37° C., in the presence of 50 μM L-KYN in an oxygenated chamber, on a shaking water bath. Compounds of the present invention were included in the incubation mixture as needed. Following incubation, the culture wells were immediately placed on ice, and the slices were rapidly separated from the incubation medium.
For KYNA determination, 1 ml samples of the incubation medium were immersed in a boiling water bath for 10 min, and the precipitated proteins were removed by centrifugation (8,730× g, 10 min). The supernatants were diluted (1:1, v/v) with 0.2M HCl and applied to Dowex 50 W (hydrogen form, Sigma) cation-exchange columns (0.5×2 cm). Subsequently, the columns were washed with 1 ml of 0.1M HCl and 1 ml of water, and the fraction containing KYNA was eluted with 2 ml of water. The eluates were applied to a 3-μm C18 HPLC column (100×3.2 internal diameter, Bioanalytical Systems, West Lafayette, Ind., U.S.A.), and KYNA was isocratically eluted with a mobile phase containing 50 mM ammonium acetate and 5% methanol at a flow rate of 0.5 ml/min. Under these conditions, the retention time of KYNA was ≈7 min.
Data were recorded and calculated with a Hewlett-Packard 3390A integrator connected to a model 160 UV absorbance detector (Beckman Instruments, Berkeley, Calif., U.S.A.) set at 340 nm.
In this assay, (D,L)-2-amino-4-(2-amino-5-chlorophenyl)-4-oxo butyric acid, also known as D,L-5-chloro-kynurenine, was tested with the following results: […]

[6] = substrate: Nc1ccccc1C(=O)C[C@H](N)C(=O)O; test: purified protein, by the assay type; conditions: other: substrate KYN varied 2 μM to 2 mM, 1 mM pyruvate, pH 8.0, 2 h at 37° C., double reciprocal plots

**Q.** What does the source list for `O=C(O)c1cc(=O)c2ccccc2[nH]1` [KYNA, Kynurenic Acid]?
**A.** excitatory amino acid (EAA) receptor antagonism [1]: effective excitatory amino acid (EAA) receptor antagonist; affinity to the glycine modulatory site of the NMDA receptor complex [2]: particularly high affinity

**Q.** For `Nc1ccc(Cl)cc1C(=O)CC(N)C(=O)O` (racemic) [Example 3, 2-amino-4-(2-amino-5-chlorophenyl)-4-oxo-butyric acid], which Ki [3] is on record?
**A.** Its Ki is 88 µM.

**Q.** And the IC50 [4]?
**A.** The IC50 was 78 µM.

**Q.** What about the inhibition at 25 µM ([5]; 25 μM compound) of the same molecule?
**A.** Its inhibition at 25 µM is 33%.

**Q.** What about the inhibition at 50 µM ([5]; 50 μM compound) of the same molecule?
**A.** The inhibition at 50 µM was 39%.

**Q.** What about the inhibition at 100 µM ([5]; 100 μM compound) of the same molecule?
**A.** The inhibition at 100 µM was 56%.

**Q.** And the inhibition at 250 µM ([5]; 250 μM compound)?
**A.** Its inhibition at 250 µM is 66%.

B1: KAT (partially purified enzyme preparation) (Rattus norvegicus) (protein)
chain: T1 sequence (Q08415 1-423)
**Q.** With B1 as the molecule, how does the Km [6] read?
**A.** The Km was 369 µM.
